ChEMBL document CHEMBL4270601, “Design and synthesis of multipotent 3-aminomethylindoles and 7-azaindoles with enhanced protein phosphatase 2A-activating profile and neuroprotection” (Eur J Med Chem, 2018)
Activity calls are given as the source filed them. No cut-off for these calls is given here.

Legend:
SH-SY5Y [1] = assay: Reversal of okadaic acid-mediated PP2A catalytic subunit C Ser/Thr phosphatase activity inactivation in human SH-SY5Y cells assessed as recovery of PP2A activity at 0.1 uM preincubated for 24 hrs followed by cotreatment with PPA2 inhibitor okadaic acid for 18 hrs measured over 30 mins by pNPP based spectrophotometric analysis relative to control; format: cell-based; parameters: scale not given: the % may be the effect or the level left
[2] = tested on: Voltage-gated calcium channel; assay: Inhibition of voltage gated calcium channel in human SH-SY5Y cells assessed as blockade of K+-evoked calcium uptake at 1 uM pretreated for 10 mins followed by 70 mM K+ addition by Fluo-4AM dye based fluorescence assay relative to control; format: cell-based
SH-SY5Y [3] = assay: Cytotoxicity against human SH-SY5Y cells assessed as decrease in cell viability up to 30 uM after 48 hrs by MTT assay; format: cell-based
SH-SY5Y [4] = assay: Neuroprotective activity against okadaic acid-induced oxidative stress in human SH-SY5Y cells assessed as increase in cell viability at 0.1 uM preincubated for 24 hrs followed by OA addition measured after 20 hrs by MTT assay relative to control; format: functional
SH-SY5Y [5] = assay: Neuroprotective activity against cocktail of rotenone plus oligomycin A-induced oxidative stress in human SH-SY5Y cells assessed as increase in cell viability at 10 nM preincubated for 24 hrs followed by […] measured after 24 hrs by MTT assay relative to control; format: functional
SH-SY5Y [6] = assay: Reversal of okadaic acid-mediated PP2A inactivation in human SH-SY5Y cells assessed as decrease in Tau phosphorylation at Ser202/Thr205 residues at 0.1 uM after 24 hrs by Western blot method; format: cell-based
[7] = molecular target: Voltage-dependent N-type calcium channel subunit alpha (Bos taurus) (UniProt G3X7Z2); assay: Inhibition of N-type voltage dependent calcium channel in bovine Chromaffin cells assessed as reduction in K+-induced calcium current at 1 uM after 3 mins by whole cell patch clamp electrophysiology assay; format: cell-based
Bos taurus = organism: Bos taurus; assay: Inhibition of P/Q-type voltage dependent calcium channel in bovine Chromaffin cells assessed as reduction in K+-induced calcium current at 1 uM after 3 mins by whole cell patch clamp electrophysiology assay; format: cell-based
[8] = tested on: Voltage-gated calcium channel; assay: Inhibition of voltage gated calcium channel in human SH-SY5Y cells assessed as blockade of K+-evoked calcium uptake at 3 uM pretreated for 10 mins followed by 70 mM K+ addition by Fluo-4AM dye based fluorescence assay relative to control; format: cell-based

Chain of Voltage-dependent N-type calcium channel subunit alpha (Bos taurus) (G3X7Z2 as listed by the source): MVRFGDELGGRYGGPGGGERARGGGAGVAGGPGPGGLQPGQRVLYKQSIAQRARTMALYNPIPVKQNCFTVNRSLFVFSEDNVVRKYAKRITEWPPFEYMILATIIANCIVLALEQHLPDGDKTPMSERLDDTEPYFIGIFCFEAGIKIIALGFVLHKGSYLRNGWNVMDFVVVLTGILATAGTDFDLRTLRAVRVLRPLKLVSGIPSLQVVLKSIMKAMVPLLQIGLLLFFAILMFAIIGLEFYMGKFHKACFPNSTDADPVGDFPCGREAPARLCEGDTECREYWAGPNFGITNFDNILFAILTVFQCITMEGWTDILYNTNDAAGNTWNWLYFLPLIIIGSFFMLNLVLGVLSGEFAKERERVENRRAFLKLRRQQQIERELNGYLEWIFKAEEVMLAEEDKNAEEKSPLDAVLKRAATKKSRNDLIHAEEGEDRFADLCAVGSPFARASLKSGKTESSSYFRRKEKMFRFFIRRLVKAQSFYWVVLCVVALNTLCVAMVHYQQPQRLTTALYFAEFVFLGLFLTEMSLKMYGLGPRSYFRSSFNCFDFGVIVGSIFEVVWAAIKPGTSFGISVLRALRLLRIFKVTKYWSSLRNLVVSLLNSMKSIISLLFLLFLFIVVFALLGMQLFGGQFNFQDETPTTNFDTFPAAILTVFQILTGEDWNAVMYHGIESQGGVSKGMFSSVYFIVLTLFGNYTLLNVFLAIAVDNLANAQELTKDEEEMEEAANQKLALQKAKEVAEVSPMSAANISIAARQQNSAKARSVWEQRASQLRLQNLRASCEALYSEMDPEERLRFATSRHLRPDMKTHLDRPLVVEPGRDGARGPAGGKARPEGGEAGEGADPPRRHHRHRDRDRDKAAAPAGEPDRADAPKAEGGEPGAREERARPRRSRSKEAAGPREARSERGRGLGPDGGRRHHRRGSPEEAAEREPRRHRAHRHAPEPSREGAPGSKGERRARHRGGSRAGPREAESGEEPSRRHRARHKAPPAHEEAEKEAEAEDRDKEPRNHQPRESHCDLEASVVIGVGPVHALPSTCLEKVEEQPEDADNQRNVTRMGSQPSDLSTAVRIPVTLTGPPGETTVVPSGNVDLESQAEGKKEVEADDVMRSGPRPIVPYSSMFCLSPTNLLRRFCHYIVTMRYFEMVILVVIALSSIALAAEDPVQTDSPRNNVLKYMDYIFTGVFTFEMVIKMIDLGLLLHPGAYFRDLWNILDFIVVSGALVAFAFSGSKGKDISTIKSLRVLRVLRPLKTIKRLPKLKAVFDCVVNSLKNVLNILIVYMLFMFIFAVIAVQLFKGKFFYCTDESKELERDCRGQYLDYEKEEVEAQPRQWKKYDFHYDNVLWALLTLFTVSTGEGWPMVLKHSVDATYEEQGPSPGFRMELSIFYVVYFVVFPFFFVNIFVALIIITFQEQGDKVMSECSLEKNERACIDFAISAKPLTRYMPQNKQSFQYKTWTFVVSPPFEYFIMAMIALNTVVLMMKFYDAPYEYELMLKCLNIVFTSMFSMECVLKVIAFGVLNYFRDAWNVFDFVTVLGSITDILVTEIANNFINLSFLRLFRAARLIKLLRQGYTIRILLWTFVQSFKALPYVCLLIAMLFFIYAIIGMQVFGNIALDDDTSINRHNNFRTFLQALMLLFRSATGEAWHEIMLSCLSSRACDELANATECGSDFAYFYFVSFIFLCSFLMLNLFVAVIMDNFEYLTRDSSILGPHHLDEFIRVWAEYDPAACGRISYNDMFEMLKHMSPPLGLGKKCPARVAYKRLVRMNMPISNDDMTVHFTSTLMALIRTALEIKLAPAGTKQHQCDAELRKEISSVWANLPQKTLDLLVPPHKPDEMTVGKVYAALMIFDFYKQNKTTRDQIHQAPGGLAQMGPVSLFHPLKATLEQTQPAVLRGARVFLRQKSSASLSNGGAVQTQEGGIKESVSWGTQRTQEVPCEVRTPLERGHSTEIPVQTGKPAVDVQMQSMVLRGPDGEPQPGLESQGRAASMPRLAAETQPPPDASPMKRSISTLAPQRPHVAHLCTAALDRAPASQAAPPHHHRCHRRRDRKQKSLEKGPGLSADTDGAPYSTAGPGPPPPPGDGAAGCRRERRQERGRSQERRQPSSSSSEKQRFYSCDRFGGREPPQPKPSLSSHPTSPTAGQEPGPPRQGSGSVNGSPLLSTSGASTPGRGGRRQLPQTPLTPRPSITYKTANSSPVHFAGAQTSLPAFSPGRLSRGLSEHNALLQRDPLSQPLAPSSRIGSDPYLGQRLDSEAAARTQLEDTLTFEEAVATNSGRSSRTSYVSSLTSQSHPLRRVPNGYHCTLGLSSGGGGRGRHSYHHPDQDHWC

inhibition (INH) [2]	inhibition [7]	Compound	Activity (SH-SY5Y [1])	Activity (SH-SY5Y [3])	Activity (SH-SY5Y [4])	Activity (SH-SY5Y [5])	Activity (SH-SY5Y [6])	inhibition (Bos taurus)	inhibition (INH) [8]
23%	–	CCCCn1cc(CN(C)C)c2cc(Cl)ccc21	39%	Non-Toxic	93%	38%	–	–	–
37%	–	Clc1ccc2c(c1)c(CN1CCCCC1)cn2Cc1ccccc1	27%	Non-Toxic	62%	24%	–	–	–
22%	–	CN(C)Cc1cn(Cc2ccccc2)c2ccccc12	45%	Non-Toxic	67%	34%	–	–	–
24%	–	CCCCn1cc(CN2CCCCC2)c2cc(Cl)ccc21	38%	Non-Toxic	98%	27%	–	–	–
18%	–	C#CCn1cc(CN(C)C)c2cc(Cl)ccc21	23%	Non-Toxic	43%	26%	–	–	–
10%	–	COc1cnc2c(c1)c(CN(C)C)cn2Cc1ccccc1	33%	Non-Toxic	51%	29%	–	–	–
13%	–	CCCCn1cc(CN2CCCCC2)c2ccccc21	30%	Non-Toxic	55%	25%	–	–	–
11%	–	C#CCn1cc(CN(C)C)c2cc(Br)cnc21	17%	Non-Toxic	63%	17%	–	–	–
–	–	COc1ccc2[nH]cc(CCNC(C)=O)c2c1 [MELATONIN]	–	–	–	36%	–	–	–
–	–	CC12CC3CC(C)(C1)CC(N)(C3)C2 [MEMANTINE]	28%	–	63%	–	–	–	–
7%	–	CCCCn1cc(CN(C)C)c2ccccc21	12%	Non-Toxic	50%	20%	–	–	–
40%	Active	CN(C)Cc1cn(Cc2ccccc2)c2ccc(Cl)cc12	78%	Non-Toxic	88%	32%	Active	Active	–
3%	–	C#CCn1cc(CN(C)C)c2ccccc21	59%	Non-Toxic	75%	32%	–	–	–
19%	–	COc1cnc2c(c1)c(CN1CCCCC1)cn2Cc1ccccc1	47%	Non-Toxic	62%	40%	–	–	–
9%	–	CCCCn1cc(CN2CCCCC2)c2cc(Br)cnc21	22%	Non-Toxic	98%	39%	–	–	–
10%	–	CCCCn1cc(CN(C)C)c2cc(Br)cnc21	34%	Non-Toxic	57%	18%	–	–	–
–	–	COC(=O)C1=C(C)NC(C)=C(C(=O)OC)C1c1ccccc1[N+](=O)[O-] [NIFEDIPINE]	–	–	–	–	–	–	40%
35%	–	C#CCn1cc(CN2CCCCC2)c2ccccc21	17%	Non-Toxic	58%	41%	–	–	–
46%	Active	CN(C)Cc1cn(Cc2ccccc2)c2ncc(Br)cc12	21%	Non-Toxic	84%	32%	–	Active	–
8%	–	C#CCn1cc(CN2CCCCC2)c2cc(Br)cnc21	25%	Non-Toxic	68%	13%	–	–	–
15%	–	Brc1cnc2c(c1)c(CN1CCCCC1)cn2Cc1ccccc1	31%	Non-Toxic	60%	25%	–	–	–
11%	–	c1ccc(Cn2cc(CN3CCCCC3)c3ccccc32)cc1	37%	Non-Toxic	65%	28%	–	–	–
32%	–	C#CCn1cc(CN2CCCCC2)c2cc(Cl)ccc21	44%	Non-Toxic	55%	16%	–	–	–
